Peptide text beside a SMILES is read from it.
Columns and labels:
[1] = tested on: MB231 breast cancer cells; conditions: summary table
Experimental: A typical in vitro screen for anti-tumor or anti-cancer effects was carried out as follows.
An aliquot of 2,000 MB231 breast cancer cells (breast carcinoma cells) in 100 μl DMEM complete media (Sigma Chemical Co.) was plated in a 96 well plate containing at a concentration of 20 μg/ml a test substance or control water. To measure proliferation of the cancer cells, an aliquot of 20 μl of MTS reagent (Promega Co.) was added to each well and the cells were incubated at 37° C. for a total of three days. The cells rapidly metabolized MTS reagent and the metabolized MTS reagent was measured at 490 nm at the end of days 1, 2 and 3. The reading was proportional to the number of cancer cells. The decrease in absorbance at each time point indicated fewer cancer cells. At the end of day 3, the decrease in absorbance with respect to the control indicated the inhibition by the test substance.

[2] = knee osteoarthritis, topical maintenance therapy; format: in vivo, human; conditions: Example 25: subject, 1% (w/v) in EP73 topically 2-3 times daily on skin covering the knee areas
Excerpt: (§1) In yet another embodiment, the volunteer subject topically applied once or twice daily the test compositions containing N-acylpeptide derivatives of the present invention on the skin site above arthritic joints or painful muscles to provide therapeutic effects for the systemic disorders via topical administration.

[3] = topical treatment of chronic inflammation, erythema, eczema with thick scales and itch, clinical evaluation; format: in vivo, human; conditions: Example 10: subject, -NH2 0.3% and -OEt 0.5% (w/v) in WEP442
Excerpt: The involved skin was divided into two lesions for testing. The subject topically applied twice daily to one lesion, N-Ac-L-Tyr-L-Tyr-L-Tyr-NH2 0.3% (w/v) in WEP442, pH 5.9 solution composition, prepared according to Example 2, and to second lesion, N-Ac-L-Tyr-L-Tyr-L-Tyr-OEt 0.5% (w/v) in WEP 442, pH 6.0, prepared according to Example 2. […] The treated skin had 90-95% improvement as judged by clinical evaluation.

[4] = knee osteoarthritis, intra-articular injections; format: in vivo, human; conditions: Example 18: subject
Experimental: A subject had severe osteoarthritis of both knees for more than four years. Prior therapy had included intra-articular injections of corticosteroids and hyaluronic acid as well as celecoxib (Celebrex) orally (200 mg) twice daily. Such therapy had provided only mild transitory relief of knee pain and edema, and edema of lower legs.
Intra-articular injections of 1% (w/v) N-Ac-L-Tyr-L-Tyr-L-Tyr-OH in water, 0.1 ml (1 mg) as prepared in Example 4 were administered to each knee. The pains in both knees disappeared about 20-30 minutes after the injections, and the relief of pains lasted for 24 hours. Edema and inflammation of the knees and lower legs had diminished for approximately the same 24 hour period. Repeat injections of the same composition were administered once a week for several weeks to provide continued relief of pain, edema and inflammation.
In another trial, intra-articular injections of 0.2% (w/v) N-Ac-L-Tyr-L-Tyr-L-Tyr-OEt with 1% (w/v) methyl cellulose in water, 0.5 ml (1 mg) as prepared in Example 4 were also administered to each knee at different times. The pains in both knees disappeared about 20-30 minutes after the injections, and the relief of pains lasted for 24 hours. Edema and inflammation of the knees and lower legs had diminished for approximately the same 24 hour period.
A subject had osteoarthritis of both knees for more than four years. […] Intra-articular injections of each knee with N-Ac-L-Tyr-L-Tyr-L-Tyr-OH, 7-13 mg in aqueous solution had provided substantial relief of pain in the joints for 2-3 days.
(§2) In yet another embodiment, the volunteer subject injected intra-articularly into a knee joint a test composition containing a N-acylpeptide derivative of the present invention to improve and reduce arthritic inflammation and pain of the joint.

[5] = topical treatment of telangiectatic rosacea, clinical evaluation; format: in vivo, human; conditions: Example 22: subject, face, 1% (w/v) in WEP442 twice daily, two weeks
Excerpt: A subject had rosacea on their face with erythema, inflammation and dilated blood vessels, described as telangiectatic rosacea. The subject topically applied twice daily N-Ac-L-Tyr-L-Tyr-L-Tyr-OEt, 1% (w/v) in WEP442 for two weeks. At the end of two weeks, the erythema and inflammation had diminished, and improvement in rduced size of telangiectatic blood vessels was discernible. The rosacea lesions had approximately 25% improvement as judged by clinical evaluation.

[6] = topical treatment of bilateral inter-metacarpal atrophy of hands; format: in vivo, human; conditions: Example 23: subject, 2% (w/v) in EP73 two to three times daily, three weeks
Excerpt: A subject had bilateral inter-metacarpal atrophy of both hands with certain restrictions of hand movements. The subject topically applied two to three times daily N-Ac-L-Tyr-L-Tyr-L-Tyr-OEt, 2% (w/v) in EP73 on the back of their left hand, and vehicle control EP73 on the back of their right hand for three weeks.
The subject now, topically applied twice daily N-Ac-L-Tyr-L-Tyr-L-Tyr-NH2, 1% (w/v) in WEP442 on the back of their left hand as a mantenace therapy.

[7] = summary of test results in volunteer subjects, efficacy grades; format: in vivo, human; conditions: efficacy grade
Excerpt: Subject 1. Person had multiple red and itchy inflammation, dermatitis, or eczema lesions, which were resistant to conventional treatments including corticosteroids. Subject 2. Person had small red and itchy lesions which were resistant to topical corticosteroid treatment. Subject 3. Person had multiple red and itchy inflammation, dermatitis, or eczema lesions over the body for many years, which were resistant to conventional treatments including corticosteroids. Subject 4. Person had red and itchy inflammation, dermatitis, or eczema lesions for many years, which were resistant to topical corticosteroid treatment. Subject 5. Person had early stage of aging related skin changes on both forearms as indicated by age spots and wrinkled skin caused by solar damage. Subject 6. Person had age spots, keratoses and wrinkles on both forearms caused by intrinsic and extrinsic aging. Subject 7. Person had age spots, and wrinkles on both forearms caused by intrinsic and extrinsic aging. Subject 8. Person had osteoarthritis of both knees with inflammation and pain for more than 4 years, and had only mild transitory relief from conventional treatments. Subject 9. Person had sensitive skin with inflammatory lesions on the body. Subject 12. Person had dermatitis and inflammatory lesions on the left palm. Subject 14. Person had multiple age spots including lentigines and keratosis on their face. Subject 15. Person had psorisis Subject 16. Person had sensitive skin and eczema for more than 40 years
In another embodiment, the volunteer subject topically applied the test compositions containing N-acylpeptide derivatives of the present invention on involved skin or lesions once or twice daily for several weeks or until the involved lesions completely cleared and clinically changed to normal skin. As a control study, the subject also topically applied a vehicle control composition on the involved skin or lesions twice daily for the same period.
as §1, §2
Some test results are summarized as follows.
DK: Disturbed keratinization AG: Aging related changes of skin, nail and hair DI: Deranged immune disorders and inflammation ND: Nerve disorders CA: Tumors and/or cancers

[8] = skin plump / skin thickness test after topical application, caliper measurement; format: in vivo, human
Experimental: In one of the studies related to skin changes associated with aging, skin thickness was measured by micrometer calipers as follows.
The skin was grasped with a 2×6 cm metal hinge: the internal faces of which were coated with emery cloth to prevent slippage, and manually squeezed to threshold subject discomfort. Combined thickness of two whole-skin layers including thickness of the two hinge leaves was measured with micrometer calipers. Thickness of the two hinge leaves was subtracted to determine the actual thickness of two whole-skin layers. Triplicate measurements on treated sites were done and an average number was used for calculation of the skin thickness.
In other studies, test sites of skin 17 mm in diameter were used, the circular sites were marked with permanent ink. Intervening control sites were also 17 mm in diameter. Thickness of skin of all sites was measured directly by means of an electronic digital caliper. In this instance the jaws of the caliper were opened to 17 mm, applied with pressure to the skin sites and then closed to firm tightness. Thickness of skin was then read off the screen of the calipers. Measurements of all sites were made in triplicates. […]

Molecule	CA (Tumors and/or cancers) [1]	knee joint pain under maintenance therapy [2]	itch [3]	duration of relief of pains ([4]; intra-articular 1 mg each knee)	period of diminished edema and inflammation of the knees and lower legs ([4]; intra-articular 1 mg each knee)	time after injection until pains in both knees disappeared ([4]; intra-articular 1 mg each knee (-OH 1% in water 0.1 ml; -OEt 0.2% with 1% methyl cellulose 0.5 ml))	improvement of rosacea lesions as judged by clinical evaluation [5]	inter-metacarpal atrophy of left hand [6]	AG: Aging related changes of skin, nail and hair [7]	DI: Deranged immune disorders and inflammation [7]	DK: Disturbed keratinization [7]	ND: Nerve disorders [7]	increase in skin thickness ([8]; Example 9: subject, severe photodamage, forearm spots, 0.5% (w/v) in WEP721 (spot A in WEP442) four times daily, 10 days)	increase in skin thickness ([8]; Example 19: subject, right extensor forearm, 0.8% (w/v) in WEP442 three times daily, four weeks)	skin condition of test site vs vehicle control ([8]; Example 20: subject, photoaging forearms, 0.5% (w/v) in WEP442 three times daily, four weeks)	increased skin thickness ([8]; Example 20: subject, photoaging forearms, 1% (w/v) in WEP442 three times daily, four weeks)	skin thickness on the back of left hand (average) ([8]; Example 24: subject, 2% (w/v) in EP73 two to three times daily, six weeks, starting thickness 1.70 mm)	increase over the starting skin thickness ([8]; Example 24: subject, back of left hand, 2% (w/v) in EP73 two to three times daily, six weeks)
CC(=O)N[C@@H](CCC(=O)O)C(=O)N[C@@H](CCC(=O)O)C(=O)N[C@@H](C)C(=O)N[C@@H](CO)C(=O)N1CCC[C@H]1C(=O)N[C@@H](CCC(=O)O)C(=O)N[C@@H](C)C(=O)N[C@H](C(=O)N[C@@H](C)C(=O)NCC(=O)N[C@H](C(=O)NCC(=O)N[C@H](C(=O)N[C@@H](CCC(=O)O)C(=O)N[C@@H](CO)C(=O)N[C@@H](CCCCN)C(N)=O)c1ccccc1)C(C)C)C(C)C [N-Ac-(EEASPEAVAGVGBESK)-NH2] (HELM PEPTIDE1{[ac].E.E.A.S.P.E.A.V.A.G.V.G.[Phg].E.S.K.[am]}$$$$V2.0)	9% Inhibition																	
N-Ac-L-Tyr-L-Tyr-L-Tyr-OEt		continued relief of knee joint pains	stopped within a few minutes	24 h	~24 h	20 to 30 min	approximately 25%	disappeared almost completely	3+ (3+: 75% Efficacy)	3+ (3+: 75% Efficacy)	3+ (3+: 75% Efficacy)	4+ (4+: 95-100% Efficacy)	20-30%	approximately 33%	palpably raised, smooth, less wrinkled and increased in skin thickness	approximately 12%	2.59 mm	52%

Reference: patent US20170112748A1, “N-ACYLPEPTIDE DERIVATIVES AND THEIR USES” (NeoStrata Company, Inc., priority 2012, published 2017)
